In publication PMC11189555, “Aryl amino acetamides prevent Plasmodium falciparum ring development via targeting the lipid-transfer protein PfSTART1” (Nature Communications, 2024):

What was measured:
ring-stage parasites = assay: Parasite reduction ratio assay; type: cell-based, Plasmodium falciparum
Procedure: Parasite reduction ratio assay. This was performed as previously described 9,10.
Briefly, asynchronous ring -stage parasites at 0.5% parasitemia and 2% haematocrit were exposed to compounds at 10 x EC50 of growth for five days with daily drug renewal. After each 24 h, a well from each treatment group was taken and washed three times in complete RPMI and final volume adjusted to 2% haematocrit. The washed culture was then aliquoted into a 96 well U-bottom plate and a 1:3 serial dilution into fresh uninfected RBCs was performed with four technical replicates for each time point. Plates were maintained in normal culturing conditions: media was replaced, and fresh RBCs given 1-2 times a week for three weeks, after which parasite growth was measured via lactate dehydrogenase assays. The number of viable parasites was calculated using the formula xn-1 +1, where x is the dilution factor and n is the number of wells that contain parasite growth. The viable parasite value was then expressed in log units and parasite reduction ratio was calculated as a decrease in […]

[1] = test system: parasitophorous vacuole membrane of newly invaded merozoites; assay: Lattice light sheet imaging and vacuole tracking; type: cell-based, Plasmodium falciparum; conditions: 60 nM W-991 vs DMSO
Procedure: Parasites were sorbitol synchronised at days 5 and 2 prior to filming. To prepare the parasites for filming, culture was loaded on LS columns attached to MACS MultiStand (Miltenyi Biotec) to isolate late-stage parasites. Imaging medium was prepared by adding 10 μM Trolox (Santa Cruz 53188-07-1) to the culture medium. To compare the effect of drug treatment on parasite invasion, either 60 nM of W-991 or an equivalent DMSO concentration was added to the imaging medium. RBCs were resuspended at 0.5% hematocrit in RPMI-HEPES supplemented with 0.2% sodium bicarbonate and stained with 1.5 μM Di-4-[…] (Invitrogen D36802) membrane marker for 1 h at 37 °C. The stained RBCs were then washed 3 x and resuspended in imaging medium. Purified schizonts were resuspended in culture medium and incubated with 25 nM Mitotracker Deep Red FM (Invitrogen M22426) for 30 min at 37 °C, 5% CO2. The stained schizonts were then pelleted and the supernatant removed before resuspending the schizonts in the imaging medium. Before imaging, imaging medium with drug was loaded to a well and imaging medium with DMSO control was loaded to another well on an 8-well glass bottom plate (Ibidi 80807). Stained RBCs and stained schizonts were then added to each well and let settle for 30 min. The imaging experiments were performed on Zeiss Lattice Lightsheet 7. […]

CC(C)(Nc1ccc(Cl)c(S(=O)(=O)N2CCOCC2)c1)C(=O)Nc1ccc(F)c(Cl)c1 [W-991]
lag phases (ring-stage parasites; 60 nM W-991, lag phases 0-24 h, 48-96 h): more than 24 h
viable parasites after treatment (ring-stage parasites; 10 x EC50 (60 nM W-991) for up to 5 days, then 21 days culture): a proportion of parasites remained after a treatment period of 5 days
killing profile (ring-stage parasites; 10xEC50: 75 nM CQ, 60 nM W-991): slow
PRR calculations: log viability at Hours 24 (ring-stage parasites; Replicate 1, 24 Hours): 4.771
PRR calculations: log viability at Hours 72 (ring-stage parasites; Replicate 1, 72 Hours): 3.34
PRR (ring-stage parasites; Replicate 1, PRR calculations): 1.431
log(parasite viability) +1 (ring-stage parasites; Replicate 1, T=1): 4.771
Parasite viability (ring-stage parasites; Replicate 1, T=1, 1:3 dilution): 59049
log(parasite viability) +1 (ring-stage parasites; Replicate 1, T=2): 3.34
Parasite viability (ring-stage parasites; Replicate 1, T=2, 1:3 dilution): 2187
log(parasite viability) +1 (ring-stage parasites; Replicate 1, T=3): 3.34
Parasite viability (ring-stage parasites; Replicate 1, T=3, 1:3 dilution): 2187
log(parasite viability) +1 (ring-stage parasites; Replicate 1, T=4): 3.34
Parasite viability (ring-stage parasites; Replicate 1, T=4, 1:3 dilution): 2187
log(parasite viability) +1 (ring-stage parasites; Replicate 1, T=5): 2.863
Parasite viability (ring-stage parasites; Replicate 1, T=5, 1:3 dilution): 729
log(parasite viability) +1 used in PRR calculations (ring-stage parasites; Replicate 2, Hours 72): 3.34
log(parasite viability) +1 used in PRR calculations (ring-stage parasites; Replicate 2, Hours 120): 1.914
PRR (ring-stage parasites; Replicate 2, PRR calculations): 1.426
Parasite viability +1 (ring-stage parasites; Replicate 2, T=1): 177148
log(parasite viability) +1 (ring-stage parasites; Replicate 2, T=1): 5.248
Parasite viability (ring-stage parasites; Replicate 2, T=1, 1:3 dilution): 177147
Parasite viability +1 (ring-stage parasites; Replicate 2, T=2): 2188
log(parasite viability) +1 (ring-stage parasites; Replicate 2, T=2): 3.34
Parasite viability (ring-stage parasites; Replicate 2, T=2, 1:3 dilution): 2187
Parasite viability +1 (ring-stage parasites; Replicate 2, T=3): 2188
log(parasite viability) +1 (ring-stage parasites; Replicate 2, T=3): 3.34
Parasite viability (ring-stage parasites; Replicate 2, T=3, 1:3 dilution): 2187
Parasite viability +1 (ring-stage parasites; Replicate 2, T=4): 2188
log(parasite viability) +1 (ring-stage parasites; Replicate 2, T=4): 3.34
Parasite viability (ring-stage parasites; Replicate 2, T=4, 1:3 dilution): 2187
Parasite viability +1 (ring-stage parasites; Replicate 2, T=5): 82
log(parasite viability) +1 (ring-stage parasites; Replicate 2, T=5): 1.914
Parasite viability (ring-stage parasites; Replicate 2, T=5, 1:3 dilution): 81
Parasite viability (1:3 dilution) (ring-stage parasites; replicate 3, T=1): 177147
log(parasite viability) +1 (ring-stage parasites; replicate 3, T=1): 5.248
Parasite viability (1:3 dilution) (ring-stage parasites; replicate 3, T=2): 2187
log(parasite viability) +1 (ring-stage parasites; replicate 3, T=2 (48 hours in PRR calculations)): 3.34
Parasite viability (1:3 dilution) (ring-stage parasites; replicate 3, T=3): 729
log(parasite viability) +1 (ring-stage parasites; replicate 3, T=3 (72 hours in PRR calculations)): 2.863
Parasite viability (1:3 dilution) (ring-stage parasites; replicate 3, T=4): 19683
log(parasite viability) +1 (ring-stage parasites; replicate 3, T=4): 4.294
Parasite viability (1:3 dilution) (ring-stage parasites; replicate 3, T=5): 81
log(parasite viability) +1 (ring-stage parasites; replicate 3, T=5 (120 hours in PRR calculations)): 1.914
PRR (ring-stage parasites; replicate 3, difference of log viability over 48 h (CQ 0-48 hours, W991 72-120 hours)): 0.9495
shape/sphericity of the PVM of newly invaded merozoites ([1]; p = 0.045 at 15 min): remained spherical
mean vacuole surface area and volume of the PVM ([1]; p = 0.109, p = 0.129): reduced in W-991 but this did not reach significance
